The nature of the data set: Photostability under continuous 808 nm laser irradiation. Format: physicochemical. As to conditions: aqueous solution, 808 nm laser at 108 mW/cm^2, 20 minutes.

The source of these data is EP4818156A1, “SQUARIC ACID COMPOUND, PHARMACEUTICALLY ACCEPTABLE SALT OR DEUTERATED COMPOUND THEREOF, PREPARATION METHOD THEREFOR AND USE THEREOF” (Shanghai Institute of Materia Medica, Chinese Academy of …, priority 2023, dated 2025).

Procedure: Indocyanine green (ICG), an FDA-approved near-infrared dye widely used clinically, was used as a control to evaluate the photostability of compound Ia (SQ 905). ICG was dissolved in water, and compound Ia (SQ 905) was dissolved in methanol. Over a period of 25 minutes, the methanol solution of compound Ia and the aqueous solution of ICG were continuously irradiated with an 808 nm laser at 108 mW/cm^2. During this period, the fluorescence intensity was recorded using a near-infrared II camera (MARS, Artemis Intelligent Imaging, Shanghai, China). Images were recorded every minute for the first 15 minutes, and every 5 minutes thereafter to monitor the fluorescence intensity. The fluorescence intensity of the region of interest (ROI) in the captured images was quantified using ImageJ software and compared with the initial fluorescence intensity to obtain the ratio of fluorescence intensity at each time point relative to the initial intensity. The photostability curve of compound Ia was plotted using GraphPad Prism 8.0.2 software.
Accordingly, the photostability of compound Ia was evaluated in this example. The methanol solution of compound Ia and the aqueous solution of ICG were used for photostability testing.

As for `CC1(C)C(/C=C/C=C/C=C/C=C2\N(CCCCS(=O)(=O)O)c3ccc4ccccc4c3C2(C)C)=[N+](CCCCS(=O)(=O)[O-])c2ccc3ccccc3c21` [ICG, Indocyanine green], the “decrease of fluorescence intensity after continuous irradiation” value is 83%.
